Drawing on US20180207105A1, “METHOD FOR MANUFACTURING A THERAPEUTIC AGENT FOR USE IN THE TREATMENT OF INFECTIONS” (AGA NANOTECH LTD, priority 2014, published 2018), this text covers pH of solution for two compounds.

This data set can be described thus: pH of solutions of the active ingredients alone dissolved in ultrapure water. It counts as physicochemical.
[1] abbreviates: 17.5 mg/ml (1.75 wt %) in ultrapure water.
The mark [2] stands for this setting: 35 mg/ml (3.5 wt %) in ultrapure water.
Where [3] appears, read: 70 mg/ml (7 wt %) in ultrapure water.
The mark [4] stands for this setting: 140 mg/ml (14 wt %) in ultrapure water.
[5] abbreviates: 280 mg/ml (28 wt %) in ultrapure water.

On to `O=C([O-])[O-].O=C([O-])[O-].OO.OO.OO.[Na+].[Na+].[Na+].[Na+]` [Sodium Percarbonate, Sodium percarbonate], for which the pH of solution is, setting by setting: under setting [1], 10.83; under setting [2], 10.89; under setting [3], 10.87; under setting [4], 10.83; under setting [5], 10.74.

For `NC(N)=O.OO` [Urea Hydrogen Peroxide, urea hydrogen peroxide], the pH of solution by setting is: under setting [1], 7.90; under setting [2], 6.92; under setting [3], 6.9; under setting [4], 6.38; under setting [5], 4.97.
